Assay results as given in paper PMC7016953 (Cells, 2020).

Columns and labels:
TRPC3 [1] = biological target: T1, TRPC3 (Homo sapiens, UniProt Q13507); assay: Fluo-4 Ca2+ influx assay in HEK TRPC3-YFP cell suspensions; format: cell-based
T1 construct: expressed in transfected cells
T1 sequence (Q13507 1-848 isoform Q13507-3): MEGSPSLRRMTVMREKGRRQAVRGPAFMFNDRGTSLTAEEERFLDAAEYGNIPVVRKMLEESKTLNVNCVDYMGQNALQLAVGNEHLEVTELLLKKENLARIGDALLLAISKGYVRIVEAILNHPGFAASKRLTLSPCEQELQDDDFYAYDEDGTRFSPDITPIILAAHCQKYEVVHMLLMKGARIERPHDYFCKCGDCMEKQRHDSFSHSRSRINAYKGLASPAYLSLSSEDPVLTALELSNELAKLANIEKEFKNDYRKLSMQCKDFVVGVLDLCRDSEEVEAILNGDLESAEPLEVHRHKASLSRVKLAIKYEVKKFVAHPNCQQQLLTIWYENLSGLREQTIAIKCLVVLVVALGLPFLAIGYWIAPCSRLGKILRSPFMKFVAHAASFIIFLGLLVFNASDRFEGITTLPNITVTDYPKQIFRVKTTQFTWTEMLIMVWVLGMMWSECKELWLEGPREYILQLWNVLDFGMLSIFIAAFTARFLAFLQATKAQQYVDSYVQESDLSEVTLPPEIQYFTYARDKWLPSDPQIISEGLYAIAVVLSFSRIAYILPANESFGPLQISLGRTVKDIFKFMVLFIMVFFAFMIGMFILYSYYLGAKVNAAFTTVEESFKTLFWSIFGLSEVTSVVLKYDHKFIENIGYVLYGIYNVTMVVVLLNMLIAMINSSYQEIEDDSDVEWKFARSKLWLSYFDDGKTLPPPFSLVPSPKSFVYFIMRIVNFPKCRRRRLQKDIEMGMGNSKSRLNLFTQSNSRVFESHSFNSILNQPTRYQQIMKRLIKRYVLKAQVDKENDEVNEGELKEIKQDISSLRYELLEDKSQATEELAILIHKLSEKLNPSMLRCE

hTRPC6-YFP = tested on: T2, hTRPC6-YFP; assay: Fluo-4 Ca2+ influx assay in HEK293 cells stably expressing TRPC6; format: cell-based, human
T2 construct: expressed in transfected cells

hTRPC7-YFP = tested on: T3, hTRPC7-YFP; assay: Fluo-4 Ca2+ influx assay in HEK293 cells stably expressing TRPC7; format: cell-based, human; conditions: fluo-4 concentration response analysis
T3 construct: expressed in transfected cells

[2] = tested on: T4, heteromeric TRPC3:TRPC6 channel complexes; assay: Fluo-4 Ca2+ influx assay in HEK293 cells co-expressing TRPC3 and TRPC6; format: cell-based; conditions: fluo-4 concentration response analysis
T4 construct: expressed in transfected cells; host or cells: HEK293, stably co-transfected
Experimental: (§1) All fluorometric Ca^2+ assays were done in (4-(2-hydroxyethyl)-1-piperazineethanesulfonic acid) (HEPES)-buffered saline (HBS), containing 132 mM NaCl, 6 mM KCl, 1 mM MgCl2, 1 mM CaCl2, 5.5 mM D-glucose, 10 mM HEPES, and 0.035% bovine serum albumin (BSA) adjusted to pH 7.4 with NaOH. For measurements in Ca^2+-free bath solutions, a modified HBS without CaCl2 was supplemented with 200 µM ethylene glycol-bis(β-aminoethyl ether)-N,N,N′,N′-tetraacetic acid (EGTA).
(§2) The primary compound screen and the generation of concentration response curves in HEK293 cells or in PC12 cells were performed by using a custom-made fluorescence plate imager built into a robotic liquid handling station equipped with a 96-tip multichannel head (Freedom Evo 150, Tecan, Männedorf, Switzerland) as described previously. To this end, trypsinized cell suspensions were loaded with 4 µM fluo-4/AM (Invitrogen, Thermo Fisher Scientific, Waltham, MA, U.S.A.) in cell culture medium for 30 min at 37 °C. After brief centrifugation, cells were resuspended in HBS and dispensed into black pigmented, clear-bottom 384-well plates (Greiner µClear, Frickenhausen, Germany). Plates were mounted on the imager, and fluorescence signals were recorded with a cooled Zyla 5.5 camera (Andor, Belfast, UK) through a 515 nm long pass filter. The image acquisition was controlled by the µManager software (http://micro-manager.org), and excitation with a LED array (470 nm) was synchronized by the camera trigger output. After baseline recording for about 60 s, the compound libraries or serial dilutions of activators or inhibitors were added to the cells by the liquid handling device. When inhibitory potencies were evaluated, a second pipetting step with the respective reference agonist was performed. Fluorescence intensities were calculated from image stacks for each well with ImageJ (National Institutes of Health, Bethesda, MD, U.S.A.), corrected for background signals, and normalized to the initial intensities (F/F0). […]

parental HEK293 cells = assay: [Ca2+]i response in un-transfected parental HEK293 cells; format: cell-based, human; conditions: concentrations up to 50 µM
Experimental: as §1, §2

TRPC3 [3] = tested on: T5, TRPC3; assay: Microfluorometric single-cell [Ca2+]i analysis, fura-2-loaded HEK cells stably expressing TRPC3; format: cell-based, human; conditions: 100 µM OAG applied sequentially; also in HEK cells expressing mouse TRPC3
T5 construct: expressed in transfected cells
Experimental: (§3) The microfluorometric single-cell [Ca^2+]i analysis was performed on an inverted epifluorescence microscope (Carl Zeiss, Jena, Germany) and calibrated as described. Cells were grown on 25 mm coverslips and loaded with 4 µM fura-2/AM (AAT Bioquest, Sunnyvale, CA, U.S.A.) in HBS containing 0.2% BSA for 30 min at 37 °C. After gently rinsing the coverslips with HBS, coverslips were mounted in a bath chamber and superfused with HBS containing 0.035% BSA.
Figure 2 Microfluorometric single-cell analysis of artemisinin-induced increases in [Ca^2+]i in fura-2-loaded HEK cells stably expressing TRPC3 (A), TRPC6 (B), or TRPC7 (C). […] Experiments were performed either in standard bath solution, containing 1 mM Ca^2+ (black lines and bars), or in a nominally Ca^2+-free HBS buffer, supplemented with 200 µM EGTA (grey lines and bars). Time courses of averaged responses (left), and statistical analysis of 6–11 independent imaging experiments with means and S.D. (right) are shown. Significant differences (p < 0.05, Student´s t-test with paired data: #, with unpaired data: *) are marked for the indicated comparisons; n.s.: difference is statistically not significant.

TRPC6 = tested on: T6, TRPC6; assay: Whole-cell patch-clamp recordings in HEK TRPC6-YFP cells; format: cell-based, human; conditions: 50 µM OAG, subsequent exposure
T6 construct: expressed in transfected cells
Experimental: (§4) The recordings of TRPC3, TRPC6, or TRPC7 membrane currents in HEK293 or PC12 cells were realized by using a Multiclamp 700B amplifier with a Digidata 1440A digitizer controlled by the PClamp 10 software (all Molecular Devices, Sunnyvale, CA, U.S.A.). Recordings were obtained at room temperature either in the whole-cell or in an outside-out configuration as indicated. Cells were seeded as described above, but at lower density, mounted in a chamber (Warner Instruments, Hamden, CT; U.S.A.), placed onto the stage of an inverted microscope, and perfused with required solution. The standard extracellular solution contained 140 mM NaCl, 5 mM CsCl, 2 mM MgCl2, 1 mM CaCl2, 10 mM HEPES, and 0.035% BSA adjusted to pH 7.4 with NaOH. The composition of standard intracellular solution was 140 mM CsCl, 1 mM MgCl2, 5 mM EGTA, and 10 mM HEPES adjusted to pH 7.25 with CsOH; the osmolarity was 295 mOsm l^−1. In outside-out measurements, the pipette solution contained 5 mM EGTA and 1.1 mM CaCl2 to achieve a calculated free Ca^2+ concentration of 100 nM.
(§5) Patch pipettes were pulled from borosilicate glass capillaries BG150F-8P (Science Products, Hofheim, Germany) with a PIP6 pipette puller (HEKA Elektronik, Lambrecht, Germany). […] In all whole-cell measurements, the series resistance was lower than 13 MΩ, and compensated by 70%. […]

TRPC7 = tested on: T7, TRPC7; assay: Whole-cell patch-clamp recordings in HEK TRPC7-YFP cells; format: cell-based, human; conditions: 50 µM OAG, subsequent exposure
T7 construct: expressed in transfected cells
Experimental: as §4, §5

[4] = tested on: PC12 cells (native TRPC3 channel complexes); assay: [Ca2+]i analysis in fura-2-loaded PC12 cells; format: cell-based, rat; conditions: artemisinin 50 or 100 µM; 6–12 experiments for each compound
Experimental: Human embryonic kidney 293 (HEK293) cells were stably transfected with expression plasmids that encode hTRPC3-YFP, hTRPC6-YFP, hTRPC7-YFP, mTRPC4ß-YFP, rTRPV1-CFP, rTRPV2-YFP, rTRPV3-YFP, mTRPV4-YFP, or hTRPM2 as previously described. Cell lines were cultured in Earle’s minimum essential medium (MEM; Sigma, Munich, Germany), supplemented with 10% fetal calf serum (Gibco Thermo Fisher Scientific, Darmstadt, Germany), 2 mM L-glutamine, and required concentrations of geneticin in a range of 0.4–1 mg/mL. A HEK293mTRPC5-YFP cell line was maintained and induced as described before. The HEK293mTRPM3α2 cells (expressing the Ca^2+-permeable main variant of mouse TRPM3) were kindly provided by Johannes Oberwinkler (Marburg, Germany), the HEK293hTRPA1 cells that constitutively overexpress the human TRPA1 were from Dr. Natalie Tigue and Dr. Steve Moore (GlaxoSmithKline, Harlow, UK). With the exception of mTRPC5-YFP, all cell lines constitutively overexpress the respective TRP channel under the control of a cytomegalovirus (CMV) promoter. A HEK cell line stably expressing the human protein kinase C (PKC) ε C-terminally tagged with YFP [13] was generated and maintained in the same medium as HEKTRPC3-YFP cells. PC12 cells were cultured in RPMI-1640 (Sigma, Munich, Germany) with 10% fetal calf serum, 2 mM L-glutamine, 100 U/mL penicillin, and 0.1 mg/mL streptomycin. For electrophysiological and single cell [Ca^2+]i imaging experiments, PC12 cells were plated onto 25 mm poly-L-lysine-coated glass coverslips and measured 24–48 h after seeding. All cells were maintained at 37 °C in a 5% CO2-aerated, humidified atmosphere.
as §3
Figure 7 Expression of TRPC3 and functional responses to TRPC activators in PC12 rat pheochromocytoma cells. (A) Immunofluorescence analysis of TRPC3 (green channel) and tyrosine hydroxylase (TH; red channel) expression in PC12 cells. Nuclei were counterstained with DAPI (blue channel). Bars: 20 µm scale. Time course of the [Ca^2+]i (B) and averaged basal and peak [Ca^2+]i values (C) were recorded by microfluorometric analysis in fura-2-loaded PC12 cells grown on glass coverslips. […] Data represent averages (B) or means and S.D. (C) of 6–12 imaging experiments for each compound. Significant increases compared to the respective basal values are indicated (#: p < 0.05; Student´s t-test for paired data).

Q: How did the “fluorescence signal of the Ca2+ indicator in primary screen” value (TRPC3 [1]; 20 µM, acute addition) turn out when C[C@H]1[C@@H](O)O[C@@H]2O[C@@]3(C)CC[C@H]4[C@H](C)CC[C@@H]1[C@@]24OO3 [artenimol] was run?
A: Its value is “immediate and transient increase in the fluorescence signal”.

Q: And the “TRPC3 activation in concentration response analysis” value (TRPC3 [1]; fluo-4, up to 200 µM, compared with solvent (DMSO))?
A: Its value is “did not reach saturation”.

Q: What about the “effect on TRPC6” value (hTRPC6-YFP; fluo-4 concentration response analysis) of the same compound?
A: Its value is “marked preference to activate TRPC3, but not the closely related TRPC6 channel”.

Q: And the “signal in counterscreen with TRPC6-expressing cells” value (hTRPC6-YFP; primary screen, 20 µM)?
A: Its value is “no signals”.

Q: What about the “effect on TRPC7” value (hTRPC7-YFP) of the same compound?
A: Its value is “remained largely unaffected”.

Q: And the “response of cells stably transfected with both TRPC3 and TRPC6” value [2]?
A: Its value is “in a very similar fashion as HEKTRPC3-YFP cells”.

Q: What about the “response of un-transfected parental HEK293 cells” value (parental HEK293 cells) of the same compound?
A: The value was “no response”.

Q: Which results are given for CCCCCCCC/C=C\CCCCCCCC(=O)OC[C@H](CO)OC(C)=O [OAG, 1-oleoyl-2-acetyl-sn-glycerol]?
A: EC50 of OAG in the presence of artemisinin (TRPC3 [1]; 30 or 100 µM artemisinin co-applied): shifted to lower concentrations; further increase in [Ca2+]i after challenge with maximally effective artemisinin (TRPC3 [3]): failed to induce a further increase in [Ca^2+]i; current densities in TRPC6-expressing HEK cells (TRPC6): caused increases in current densities; current densities in TRPC7-expressing HEK cells (TRPC7): caused increases in current densities; [Ca2+]i in fura 2-loaded PC12 cells [4]: significant increases in [Ca^2+]i
